Measured values: PMC3492916 (Molecular Nutrition & Food Research, 2011)
Entries after “also recorded” stand apart in the source; their conditions may differ.

How the values were obtained:
[1] = target: T1, BCRP/ABCG2 (Sus scrofa, UniProt Q8MIB3); assay: Active transport study with inhibitor Fumitremorgin C; assay type: in vitro ADME, porcine
T1 sequence (Q8MIB3 1-656): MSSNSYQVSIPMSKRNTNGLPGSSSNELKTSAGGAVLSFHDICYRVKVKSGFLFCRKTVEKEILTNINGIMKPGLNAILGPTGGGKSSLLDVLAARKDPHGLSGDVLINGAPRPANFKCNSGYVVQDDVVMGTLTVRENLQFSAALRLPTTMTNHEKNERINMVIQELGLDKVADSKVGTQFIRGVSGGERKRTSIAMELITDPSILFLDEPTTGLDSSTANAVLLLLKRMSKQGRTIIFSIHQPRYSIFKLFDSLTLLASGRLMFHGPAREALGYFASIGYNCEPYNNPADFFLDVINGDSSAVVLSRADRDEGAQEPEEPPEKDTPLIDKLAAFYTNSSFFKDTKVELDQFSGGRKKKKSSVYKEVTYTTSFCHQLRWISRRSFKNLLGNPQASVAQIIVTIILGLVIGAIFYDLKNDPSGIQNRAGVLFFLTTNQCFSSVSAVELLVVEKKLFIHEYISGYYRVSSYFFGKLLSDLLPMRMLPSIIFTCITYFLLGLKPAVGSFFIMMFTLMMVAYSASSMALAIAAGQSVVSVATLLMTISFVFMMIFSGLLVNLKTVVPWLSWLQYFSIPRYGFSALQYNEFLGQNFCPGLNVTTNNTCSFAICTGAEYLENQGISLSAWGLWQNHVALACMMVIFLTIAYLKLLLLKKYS

[2] = tested on: Caco-2; conditions: Caco-2 model, after 6 h; cited from earlier work
[3] = tested on: Pgp; conditions: cited from earlier work
[4] = tested on: PBCEC; assay: Cytotoxicity; assay type: cell-based, porcine; conditions: 24 h; for Impact on cell viability (CCK-8 assay): up to a concentration of 20 mM (so in the source), with corresponding -inine form
[5] = tested on: PBCEC monolayers; assay: Active transport study, equal concentrations in both compartments; conditions: for Enrichment of substance concentration in one compartment: ET 10 μM, EC 1 μM a/b, over 48 h
[6] = cited from earlier work
[7] = Permeability across PBCEC monolayers on Transwell filters; conditions: pig
[8] = tested on: PBCEC monolayers; assay: as above; conditions: apical addition; for Time of maximum of permeation into basolateral compartment / Maximum of permeation into basolateral compartment: EM and ET 10 μM, EC 1 μM; for Maximum of permeation into basolateral compartment: t = 0 h as 100%
[9] = tested on: PBCEC monolayer; assay: TEER measurement; assay type: cell-based, porcine; conditions: for Influence on barrier integrity (TEER): 10 μM (a) or 10 μM (a/b), in comparison to the control
[10] = target: P-glycoprotein (Sus scrofa, UniProt K7GMM7); assay: Active transport study with inhibitor PSC 833; assay type: in vitro ADME, porcine
Sequence of P-glycoprotein (K7GMM7 1-1248): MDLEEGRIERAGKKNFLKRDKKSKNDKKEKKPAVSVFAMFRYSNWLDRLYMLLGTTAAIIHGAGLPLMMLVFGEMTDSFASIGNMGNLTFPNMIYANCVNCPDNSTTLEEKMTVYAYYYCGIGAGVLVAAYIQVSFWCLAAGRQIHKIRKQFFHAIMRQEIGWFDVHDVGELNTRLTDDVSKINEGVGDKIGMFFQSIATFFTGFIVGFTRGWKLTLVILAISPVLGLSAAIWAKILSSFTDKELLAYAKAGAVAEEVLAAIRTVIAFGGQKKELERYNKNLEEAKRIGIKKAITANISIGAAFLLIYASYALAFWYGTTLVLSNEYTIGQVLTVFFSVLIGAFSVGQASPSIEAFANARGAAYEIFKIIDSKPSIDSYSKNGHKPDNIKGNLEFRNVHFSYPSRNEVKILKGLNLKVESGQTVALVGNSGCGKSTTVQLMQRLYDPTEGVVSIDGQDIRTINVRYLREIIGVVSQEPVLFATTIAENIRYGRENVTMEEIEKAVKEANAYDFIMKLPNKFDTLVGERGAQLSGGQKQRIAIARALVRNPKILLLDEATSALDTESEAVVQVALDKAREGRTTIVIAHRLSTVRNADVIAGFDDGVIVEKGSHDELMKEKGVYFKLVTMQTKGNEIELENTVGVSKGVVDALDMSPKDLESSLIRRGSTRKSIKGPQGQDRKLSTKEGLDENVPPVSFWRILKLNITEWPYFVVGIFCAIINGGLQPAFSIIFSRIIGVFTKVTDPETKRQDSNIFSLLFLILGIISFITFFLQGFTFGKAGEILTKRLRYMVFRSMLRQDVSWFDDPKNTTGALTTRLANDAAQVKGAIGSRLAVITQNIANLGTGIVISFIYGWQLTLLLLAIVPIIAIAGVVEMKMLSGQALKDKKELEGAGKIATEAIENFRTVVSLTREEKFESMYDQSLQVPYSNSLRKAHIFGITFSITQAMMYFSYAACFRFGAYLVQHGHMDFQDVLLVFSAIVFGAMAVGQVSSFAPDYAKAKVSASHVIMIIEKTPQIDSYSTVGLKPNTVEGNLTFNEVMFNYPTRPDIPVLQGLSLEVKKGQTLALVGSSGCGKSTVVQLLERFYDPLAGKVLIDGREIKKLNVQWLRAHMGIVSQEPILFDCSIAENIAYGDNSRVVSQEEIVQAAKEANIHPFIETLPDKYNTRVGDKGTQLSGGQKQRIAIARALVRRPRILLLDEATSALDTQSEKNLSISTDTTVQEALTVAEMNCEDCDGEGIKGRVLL

[11] = Active transport study, equal concentrations in both compartments; conditions: pig, PBCEC monolayers
[12] = tested on: PBCEC; assay: Fluorescence microscopy of occludin and cell nuclei; assay type: cell-based, porcine; conditions: 10 μM a/b, 24 h
[13] = 10 μM inhibitor a/b, preincubated 1 h, EM 10 μM a/b

COc1ccc2c3c([nH]c2c1)[C@H](C=C(C)C)N1C(=O)[C@@H]2CCCN2C(=O)[C@@H]1C3 [FTC, Fumitremorgin C]
Influence of inhibitor on the transport of EM [1, 13]: total inhibition of the transport process

ergovaline/ ergovalinine
Initial concentration reaching the other compartment [2]: 40%

CN1C[C@H](C(=O)N[C@]2(C)O[C@@]3(O)[C@@H]4CCCN4C(=O)[C@H](Cc4ccccc4)N3C2=O)C=C2c3cccc4[nH]cc(c34)C[C@H]21 [ET, ergotamine]
Pgp inhibition [3]: Pgp inhibitors
Impact on cell viability (CCK-8 assay) [4]: no impact
Enrichment of substance concentration in one compartment [5]: no enrichment
Detection in CSF ([6]; 18 patients, different application methods): no ergotamine in CSF
Oral bioavailability ([6]; humans, peptide ergot alkaloids like ergotamine): less than 2%
Concentration in cerebrospinal fluid (CSF) ([6]; ten patients): 0.4 ng/mL
Papp A→B [7]: 11.9 ×10⁻⁶ cm/s
Papp B→A [7]: 18 ×10⁻⁶ cm/s
efflux ratio at 24 h, 10 μM [7]: < 2
Time of maximum of permeation into basolateral compartment [8]: 12 h
Maximum of permeation into basolateral compartment [8]: 40%
Influence on barrier integrity (TEER) ([9]; 1 μM (a), 24 h): No influence; also recorded: no impact on barrier integrity

C[C@@H](CO)NC(=O)[C@@H]1C=C2c3cccc4[nH]cc(c34)C[C@H]2N(C)C1 [EM, ergometrine]
Pgp inhibition [3]: Pgp inhibitors
Concentration in apical compartment, % of the initial concentration ([10]; EM 10 μM a/b with PSC 833 10 μM a/b, after 48 h): 110%
Impact on cell viability (CCK-8 assay) [4]: no impact
Concentration in apical compartment, % of the initial concentration ([5]; 10 μM a/b, after 24 h): about 117%
Total enrichment in apical compartment ([5]; 10 μM a/b, after 48 h): 130%
Substance in cell lysate ([5]; 10 μM a/b, during the whole experiment (48 h)): no EM was detectable in cell lysate
Transporter substrate property ([1]; concluded from total inhibition by FTC): substrate for BCRP/ABCG2 transporter
Papp A→B [7]: 1.05 ×10⁻⁶ cm/s
Papp B→A [7]: 6.05 ×10⁻⁶ cm/s
Time before which first traces were not detectable in basolateral compartment ([8]; 10 μM): ≥ 6 h
Time of maximum of permeation into basolateral compartment [8]: 24 h
Maximum of permeation into basolateral compartment [8]: 29%
Influence on barrier integrity (TEER) ([9]; 1 μM (a), 24 h): No influence; also recorded: no impact on barrier integrity

C/C=C/C[C@@H](C)C(=O)[C@H]1C(=O)N[C@@H](C(C)C)C(=O)N(C)CC(=O)N(C)[C@@H](CC(C)C)C(=O)N[C@@H](C(C)C)C(=O)N(C)[C@@H](CC(C)C)C(=O)N[C@@H](C)C(=O)N[C@H](C)C(=O)N(C)[C@@H](CC(C)C)C(=O)N(C)[C@@H](CC(C)C)C(=O)N(C)[C@@H](C(C)C)C(=O)N1C [PSC, PSC 833]
Influence of inhibitor on the transport of EM [10, 13]: lagging of enrichment in the apical compartment

CC(C)[C@@]1(NC(=O)[C@@H]2C=C3c4cccc5[nH]cc(c45)C[C@H]3N(C)C2)O[C@@]2(O)[C@@H]3CCCN3C(=O)[C@H](Cc3ccccc3)N2C1=O [EC, ergocristine]
Concentration at which significant differences in cell viability start ([4]; CCK-8): 5 µM
Concentration at which significant results in cell viability start ([4]; CCK-8, Figure 2 legend): 5000 µM
Cell viability (CCK-8 assay) ([4]; from 5 μM, in equilibrium with -inine form): 85 % of the control
recovery at 48 h, 1 µM [11]: 60%
Enrichment of substance concentration in one compartment [5]: no enrichment
Immunostaining of occludin and cell nuclei [12]: disrupted cells could be visualized by the absence of nuclei
Papp A→B [7]: 20.5 ×10⁻⁶ cm/s
Papp B→A [7]: 26.1 ×10⁻⁶ cm/s
Concentration in basolateral compartment ([8]; 1 μM, after 24 h): 32%
Time of maximum of permeation into basolateral compartment [8]: 6 h
Maximum of permeation into basolateral compartment [8]: 49%
Effect on barrier integrity (TEER) ([9]; 1 μM (a)): no effect
TEER, % of initial TEER ([9]; 1 μM (a/b)): about 80%
TEER, % of initial TEER ([9]; 5 μM (a)): about 80%
TEER, % of the starting value ([9]; 5 μM (a/b)): 50–70%
TEER, % of the starting value ([9]; 5 μM (b)): 50–70%
TEER, % of the starting value ([9]; 10 μM (a)): 50–70%
TEER, % of the starting value ([9]; 10 μM (b)): 50–70%
TEER of incubated samples ([9]; 10 mM (so in the source) a/b, 24 h, samples of immunostaining, control >1000): < 200 Ωcm^2
